In patent publication US11872209B2, “Treatment for primary biliary cholangitis” (Zydus Lifesciences Limited, priority 2016, dated 2024):
Entries after “also recorded” stand apart in the source; their conditions may differ. Counter-ions that a name gives are not always drawn.

Tested on: carbon tetrachloride-induced liver fibrosis
Assay: Carbon tetrachloride-induced liver fibrosis in male Sprague Dawley rats
Type: in vivo
Settings: 0.4 and 4 mg/kg/day orally for 4 weeks with continued CCl4 injections
Description: To assess the effect of Compound of formula (Ia) on the progression of established hepatic fibrosis, fibrosis was induced in rats by twice weekly carbon tetrachloride (CCl4) injections for 2 weeks via an intraperitoneal route. Compound (Ia) (0.4 and 4 mg/kg/day), pioglitazone (10 mg/kg/day), fenofibrate (100 mg/kg/day) or vehicle (Tween 80 and 0.5% sodium salt of carboxymethylcellulose at ratio of 0.5:99.5) was then orally administered for 4 weeks to animals concomitantly with continued CCl4 injections. After 4 weeks of treatment, blood samples were collected 1 h post-dose, for estimation of non-fasted serum ALT and other serum parameters. All the animals were sacrificed; liver was quickly removed, weighed and fixed in 10% formalin for histological analysis or snap frozen in liquid nitrogen for other assays. Light microscopic examination of liver tissue was performed using standard hematoxylin and eosin (H&E) staining. Hepatic fibrosis was accessed by Masson's trichrome staining method.

CCO[C@@H](Cc1ccc(OCCn2c(C)ccc2-c2ccc(SC)cc2)cc1)C(=O)O [Compound (Ia), saroglitazar magnesium salt]
Effect on CCl4-induced liver fibrosis (after 2 weeks of CCl4, listed as Compound of formula (Ia)): protected the animals from further deterioration and exhibited a dose-dependent reversal of CCl4-induced liver fibrosis; also recorded: protected the animals from further deterioration and showed dose dependent reversal of CCl4-induced liver fibrosis | Microscopic quantification of fibrosis (H&E and Masson's trichrome staining of liver tissues) (FIG. 1): stopped the progression of established liver fibrosis and accelerated liver recovery
